Results on 18 molecules are retold here after US9216981B2, “Purinylpyridinylamino-2,4-difluorophenyl sulfonamide derivative, pharmaceutically acceptable salt thereof, preparation method thereof, and pharmaceutical composition with inhibitory activity against Raf kinase, containing same as active ingredient” (Medpacto, Inc., priority 2010, dated 2015).

Each structure is given as a SMILES string.

One experiment has as its system A375P cell line. Nature of the experiment: B-Raf cell activity inhibition (A375P growth inhibition, MTT assay). Conditions: A375P human melanoma, V600E mutant of B-Raf, 72 hours. Type of experiment: cell-based. Here is the method:
To check the B-Raf cell activity inhibitory capability of the compounds of the present invention, the following experiments were conducted in A375P cell line (ATCC). […] A375 cell was maintained in DMEM supplemented with 10% fetal bovine serum, glutamine (2 mM), penicillin (100 U/mL), and streptomycin (100 μg/mL). The cell was maintained at 37° C., and in 5% CO2 and 100% humidity. To conduct the growth inhibition test, the cell was plated by using a white 384-well microplate, with 1000 cells/20 μl plated per 1 well. After 24 hours, 5 μl of 5× stock solution of drug was added. All the drugs were initially prepared with 200× stock solution in DMSO, and the final concentration of DMSO was 0.5%. The cell was incubated at 37° C. for 72 hours. For MTT assay, ‘CellTiter 96 (R) Non-Radioactive Cell Proliferation Assay (G4100)’ kit by Promega Corp. was used. 15 μl of dye solution of the Promega kit was put into each well and was cultured in the incubator for 4 hours. And 100 μl of each Solubilization/Stop Solution substance of the kit was added and fixed in the incubator for 24 hours again. And then, absorbance was measured by using a 96-well plate reader with 570 nm of absorbance.

The next experiment concerns the target B-Raf (Homo sapiens (Human), UniProt P15056). Nature of the experiment: B-Raf kinase activity (B-Raf/MEK1/MAPK2 cascade, MBP phosphorylation, [γ-32P]ATP). Type of experiment: biochemical. Conditions: activated B-Raf, inactivated MEK1, inactivated MAPK2, 30° C., 30 minutes, read-out: B-Raf Enzyme Activity. Here is the method: To check the B-Raf kinase inhibitory activity of the compounds of the present invention, the following experiments were conducted.
20 μl of diluting solvent (20 mM MOPS, pH 7.2, 25 mM β-glycerol phosphate, 5 mM EGTA, 1 mM sodium orthovanadate, 1 mM dithiothreitol) and 10 μl of Mg/ATP mixed solution (500 μM ATP, 75 mM magnesium chloride) were added into a centrifuge tube, the derivative compound of Formula 1 was added or the compounds of the Examples were not added as a control group, and then 1 ng of activated B-Raf, 0.4 ng of inactivated MEK1, and 1 μg of inactivated MAPK2 were added. The solutions in the tube were collected on the bottom via centrifugation and were reacted at 30° C. for 30 minutes. After taking 4 μl of the mixed solution, the test proceeded to the next step.
(2) Phosphorylation of Matrix Protein MBP by MAPK2
10 μl of diluting solvent, 20 μg of MBP used as a matrix, and 10 μl of diluted [γ-32P]ATP (1 μCi/μL) were added into the 4 μl of the mixed solution obtained from (1). The solutions in the tube were collected on the bottom via centrifugation and were reacted at 30° C. for 30 minutes. And 25 μl of the reacted solution was put carefully on the center of a filter paper (2 cm×2 cm P81) for 30 seconds. Afterwards, the filter paper was cleaned with 0.75% phosphoric acid for 10 minutes three times and with acetone for 5 minutes one time. The filter paper was then moved to a scintillation vial and 5 ml of scintillation cocktail was added thereto. The inhibition rate (IC50) over B-Raf activity was measured by reading radioactivity through a scintillation counter while comparing to the control group.

Sequence of B-Raf (P15056 whole entry): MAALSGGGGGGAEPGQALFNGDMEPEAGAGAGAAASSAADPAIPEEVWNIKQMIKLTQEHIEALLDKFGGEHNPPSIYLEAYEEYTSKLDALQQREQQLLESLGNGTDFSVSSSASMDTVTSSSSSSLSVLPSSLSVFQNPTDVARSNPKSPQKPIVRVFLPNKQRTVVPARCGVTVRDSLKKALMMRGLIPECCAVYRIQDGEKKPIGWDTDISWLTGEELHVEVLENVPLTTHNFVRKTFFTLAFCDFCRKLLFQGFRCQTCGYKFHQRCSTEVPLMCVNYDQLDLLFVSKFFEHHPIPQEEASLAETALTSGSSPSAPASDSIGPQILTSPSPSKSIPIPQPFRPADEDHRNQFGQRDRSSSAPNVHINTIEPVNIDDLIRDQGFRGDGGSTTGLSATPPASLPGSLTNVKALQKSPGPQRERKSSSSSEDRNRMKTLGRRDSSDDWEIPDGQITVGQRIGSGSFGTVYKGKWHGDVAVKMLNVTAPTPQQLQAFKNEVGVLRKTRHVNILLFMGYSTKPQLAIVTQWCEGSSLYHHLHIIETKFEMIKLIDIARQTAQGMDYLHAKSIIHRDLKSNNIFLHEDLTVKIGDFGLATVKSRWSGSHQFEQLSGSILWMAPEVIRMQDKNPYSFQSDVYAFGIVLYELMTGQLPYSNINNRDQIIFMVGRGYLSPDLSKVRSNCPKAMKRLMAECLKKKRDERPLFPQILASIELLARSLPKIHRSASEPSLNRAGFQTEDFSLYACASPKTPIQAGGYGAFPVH

As to `O=S(=O)(Nc1ccc(F)c(Nc2ncccc2-c2ncnc3[nH]cnc23)c1F)c1ccc(Cl)cc1F` [Example 8, N-(3-(3-(9H-purin-6-yl)pyridin-2-ylamino)-2,4-difluorophenyl)-4-chloro-2-fluorobenzenesulfonamide], the values for the IC50 with A375P cell line and at B-Raf were 700 nM and 33.7 nM, respectively.
Consider `Cc1nc2ccc(S(=O)(=O)Nc3ccc(F)c(Nc4ncccc4-c4ncnc5[nH]cnc45)c3F)cc2s1` [Example 39, N-(3-(3-(9H-purin-6-yl)pyridin-2-ylamino)-2,4-difluorophenyl)-2-methylbenzo[d]thiazole-6-sulfonamide], for which the IC50 in the experiment with A375P cell line is 2930 nM; on B-Raf, 400 nM.
The like results for `Cc1ccccc1S(=O)(=O)Nc1ccc(F)c(Nc2ncccc2-c2ncnc3[nH]cnc23)c1F` [Example 31, N-(3-(3-(9H-purin-6-yl)pyridin-2-ylamino)-2,4-difluorophenyl)-2-methylbenzenesulfonamide] were, in that order, 670 nM and 50 nM.
The like results for `O=S(=O)(Nc1ccc(F)c(Nc2ncccc2-c2ncnc3[nH]cnc23)c1F)c1cccc2ccoc12` [Example 37, N-(3-(3-(9H-purin-6-yl)pyridin-2-ylamino)-2,4-difluorophenyl)benzofuran-7-sulfonamide] were, in that order, 810 nM and 90 nM.
As for `Cn1ccc2cccc(S(=O)(=O)Nc3ccc(F)c(Nc4ncccc4-c4ncnc5[nH]cnc45)c3F)c21` [Example 42, N-(3-(3-(9H-purin-6-yl)pyridin-2-ylamino)-2,4-difluorophenyl)-1-methyl-1H-indole-7-sulfonamide], the IC50 was 5870 nM with A375P cell line and 800 nM at B-Raf.
For `COC(=O)c1sccc1S(=O)(=O)Nc1ccc(F)c(Nc2ncccc2-c2ncnc3[nH]cnc23)c1F` [Example 16, Methyl-3-(N-(3-(3-(9H-purin-6-yl)pyridin-2-ylamino)-2,4-difluorophenyl)sulfamoyl)thiophene-2-carboxylate], the results for the IC50 in the experiment on A375P cell line and on B-Raf were 9600 nM and 1500 nM, respectively.
For `Cc1c(Cl)cccc1S(=O)(=O)Nc1ccc(F)c(Nc2ncccc2-c2ncnc3[nH]cnc23)c1F` [Example 14, N-(3-(3-(9H-purin-6-yl)pyridin-2-ylamino)-2,4-difluorophenyl)-3-chloro-2-methyl benzenesulfonamide], in that order: 6 nM and 2 nM.
For `O=S(=O)(Nc1ccc(F)c(Nc2ncccc2-c2ncnc3[nH]cnc23)c1F)c1cccc2c1OCC2` [Example 36, N-(3-(3-(9H-purin-6-yl)pyridin-2-ylamino)-2,4-difluorophenyl)-2,3-dihydrobenzofuran-7-sulfonamide], in that order: 8370 nM and 1020 nM.
For `O=S(=O)(Nc1ccc(F)c(Nc2ncccc2-c2ncnc3[nH]cnc23)c1F)c1cccc(Cl)c1F` [Example 29, N-(3-(3-(9H-purin-6-yl)pyridin-2-ylamino)-2,4-difluorophenyl)-3-chloro-2-fluorobenzenesulfonamide], the IC50 in the experiment on A375P cell line came to 720 nM; at B-Raf it was 80 nM.
The like results for `O=S(=O)(Nc1ccc(F)c(Nc2ncccc2-c2ncnc3[nH]cnc23)c1F)c1cccc(C(F)(F)F)c1` [Example 2, N-(3-(3-(9H-purin-6-yl)pyridin-2-ylamino)-2,4-difluorophenyl)-3-(trifluoromethyl)benzenesulfonamide] were, in that order, 230 nM and 8.8 nM.
The like results for `O=S(=O)(Nc1ccc(F)c(Nc2ncccc2-c2ncnc3[nH]cnc23)c1F)c1cc2ccccc2o1` [Example 7, N-(3-(3-(9H-purin-6-yl)pyridin-2-ylamino)-2,4-difluorophenyl)benzofuran-2-sulfonamide] were, in that order, 4300 nM and 832 nM.
For `O=S(=O)(Nc1ccc(F)c(Nc2ncccc2-c2ncnc3[nH]cnc23)c1F)c1ccco1` [Example 15, N-(3-(3-(9H-purin-6-yl)pyridin-2-ylamino)-2,4-difluorophenyl)furan-2-sulfonamide], in that order: 11000 nM and 1 nM.
Consider `CCCS(=O)(=O)Nc1ccc(F)c(Nc2ncccc2-c2ncnc3[nH]cnc23)c1F` [Example 5, N-(3-(3-(9H-purin-6-yl)pyridin-2-ylamino)-2,4-difluorophenyl)propan-1-sulfonamide], for which the values for the IC50 in the experiment on A375P cell line and on B-Raf were 310 nM and 23 nM, respectively.
The like results for `Cn1ccc2c(S(=O)(=O)Nc3ccc(F)c(Nc4ncccc4-c4ncnc5[nH]cnc45)c3F)cccc21` [Example 41, N-(3-(3-(9H-purin-6-yl)pyridin-2-ylamino)-2,4-difluorophenyl)-1-methyl-1H-indole-4-sulfonamide] were, in that order, 4200 nM and 550 nM.
For the molecule `O=S(=O)(Nc1ccc(F)c(Nc2ncccc2-c2ncnc3[nH]cnc23)c1F)c1ccccc1` [Example 35, N-(3-(3-(9H-purin-6-yl)pyridin-2-ylamino)-2,4-difluorophenyl)benzenesulfonamide], the values for the IC50 in the experiment on A375P cell line and on B-Raf were 160 nM and 20 nM, respectively.
With `Cc1cccc(Cl)c1S(=O)(=O)Nc1ccc(F)c(Nc2ncccc2-c2ncnc3[nH]cnc23)c1F` [Example 27, N-(3-(3-(9H-purin-6-yl)pyridin-2-ylamino)-2,4-difluorophenyl)-2-chloro-6-methylbenzenesulfonamide], the IC50 in the experiment with A375P cell line worked out at 760 nM; on B-Raf it was 80 nM.
For `CC(C)S(=O)(=O)Nc1ccc(F)c(Nc2ncccc2-c2ncnc3[nH]cnc23)c1F` [Example 1, N-(3-(3-(9H-purin-6-yl)pyridin-2-ylamino)-2,4-difluorophenyl)propane-2-sulfonamide], the IC50 was found to be 120 nM with A375P cell line and 17 nM at B-Raf.
The like results for `O=S(=O)(Nc1ccc(F)c(Nc2ncccc2-c2ncnc3[nH]cnc23)c1F)c1ccc(F)c(Cl)c1` [Example 28, N-(3-(3-(9H-purin-6-yl)pyridin-2-ylamino)-2,4-difluorophenyl)-3-chloro-4-fluorobenzenesulfonamide] were, in that order, 1930 nM and 300 nM.
